In publication PMC12974487, “Inhibition of FicD-mediated AMPylation and deAMPylation by isoprenoid diphosphates” (Proceedings of the National Academy of Sciences of the …, 2026):
Substitutions are numbered along the chain they refer to.

Key:
FicD^H363A = target: T1, FicD^H363A (Homo sapiens, UniProt Q9BVA6, H363A); experiment: MIDAS metabolite screen, FicD^H363A; format: binding; conditions: cutoff Q < 0.05 and |Log2 corrected fold change| > 2, metabolites 5 µM
T1 construct: soluble ER luminal domain (residues 105 to 458) of wild-type human FicD and three mutants; 6xHis-Sumo (N, cleaved yes); made in house; host or cells: Rosetta(DE3) E. coli
T1 sequence (Q9BVA6 105-458 H363A): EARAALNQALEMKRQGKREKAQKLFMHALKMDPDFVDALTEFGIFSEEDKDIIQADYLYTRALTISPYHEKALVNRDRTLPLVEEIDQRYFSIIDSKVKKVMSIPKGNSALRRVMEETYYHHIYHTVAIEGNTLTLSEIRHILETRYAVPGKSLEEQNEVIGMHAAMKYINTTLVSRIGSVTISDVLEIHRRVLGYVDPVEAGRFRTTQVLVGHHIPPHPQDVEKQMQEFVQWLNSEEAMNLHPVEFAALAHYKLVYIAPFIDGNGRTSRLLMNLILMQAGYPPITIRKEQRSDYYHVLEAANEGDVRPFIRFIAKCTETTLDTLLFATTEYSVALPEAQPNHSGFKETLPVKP
Source text: To identify small-molecule metabolite interactions with FicD, we applied an unbiased high-throughput screening approach known as MIDAS ([44]). Given the high concentrations of protein required for MIDAS screening, we purified the soluble ER luminal domain (residues 105 to 458) of wild-type human FicD and three mutants FicD^E234G, FicD^L258D, and FicD^H363A for screening (Fig. 1A). These mutants were selected based on their well-established biochemical features ([23], [24], [31]). All three are predicted to enhance detection of protein–metabolite interactions (PMIs) relative to FicD^WT through increased affinity for nucleotide substrates (FicD^E234G), improved solubility (FicD^L258D), and loss of catalytic turnover (FicD^H363A) (Fig. 1A). To decrease the potential for nonspecific small-molecule binding, we ensured the purity of our FicD proteins (SI Appendix, Fig. S1 A and B). As reported by other investigators ([24], [31]), we observe an increase in elution volume of the FicD^L258D mutant, consistent with its monomerization (SI Appendix, Fig. S1C).
Out of the 602 naturally occurring human metabolites in the MIDAS library, we applied a significance cutoff (q value < 0.05) to identify 12 PMIs with a Log2 (corrected fold change) of >2 and two PMIs with a Log2 (corrected fold change) <-2 in the FicD^WT screen (Fig. 1B and SI Appendix, Table S2). Hits were additionally triaged based on detection of multiple adducts of the metabolite in a single dataset (FPP and […] in Fig. 1B) and identification of the same metabolites across three or more of the FicD construct screens (Fig. 1C). Three chemical classes passed this initial triage: adenosine nucleotides, isoprenoid diphosphates, and thyroid hormone intermediates (Fig. 1 B and C and SI Appendix, Tables S2–S5).
22°C. Induced cultures were then harvested by centrifugation at 8000G for 15 minutes at 4°C and […]
Bacterial pellets were resuspended in 30-50mL of 50mM Tris pH 7.4/150mM NaCl/10% glycerol with one Roche cOmplete EDTA-Free Protease inhibitor cocktail tablet (cat no. COEDTAF-RO).
Triton-X100 to a final concentration of 0.2%, Chicken-egg lysozyme to a final concentration of 0.4ug/mL, and 2-5uL of Millipore Benzonase Nuclease (cat no. 70664) were added to bacterial suspension prior to sonication at 40-50% amplitude for 1-3 minutes in pulses of 5 seconds on and 30 seconds off on ice with a Sonics VCX 750 Ultrasonicator. Bacterial lysate was then clarified by centrifugation at 30,000 x g for 30 minutes at 4°C.
Clarified lysate was rotated with Qiagen NiNTA agarose beads (cat no. 30210) for 1-2 hours at 4°C. […]

FicD^WT = target: T2, FicD^WT (Homo sapiens, UniProt Q9BVA6); experiment: MIDAS equilibrium dialysis/mass spectrometry metabolite screen, FicD^WT; format: binding; conditions: cutoff Q < 0.05 and |Log2 corrected fold change| > 2, metabolites 5 µM
T2 construct: soluble ER luminal domain (residues 105 to 458) of wild-type human FicD; 6xHis-Sumo (N, cleaved yes); made in house; host or cells: Rosetta(DE3) E. coli
T2 sequence (Q9BVA6 105-458): T1 sequence (Q9BVA6 105-458 H363A) with A259H

| Structure (SMILES) | MIDAS protein-metabolite interaction (enrichment/depletion) (FicD^H363A) | MIDAS protein-metabolite interaction (enrichment/depletion) (FicD^WT) |
| --- | --- | --- |
| Nc1ncnc2c1ncn2[C@@H]1O[C@H](COP(=O)(O)OP(=O)(O)O)[C@@H](O)[C@H]1O [ADP] | significantly enriched | significantly enriched |
| CC(C)=CCC/C(C)=C/COP(=O)(O)OP(=O)(O)O [GPP, geranyl-pyrophosphate] | significantly enriched | significantly enriched |
| CC(C)=CCC/C(C)=C/CC/C(C)=C/COP(=O)(O)OP(=O)(O)O [FPP, farnesyl-pyrophosphate] | significantly enriched | significantly enriched |
